Measurements as given in US10357487B2, “Combinations of acetylcholinesterase inhibitors and muscarinic agonists and methods of use thereof” (priority 2015, dated 2019).

Legend:
[1] = tested on: patients with history of PVR; assay: Side effects observed in the patients
[2] = tested on: patients with history of PVR; assay: Voiding trial / ability to void under stepwise drug regimens; type: in vivo, human
Procedure: In an exemplary embodiment, patients with history of PVR of 100 ml to 2500 ml failed bother standard drug treatment and the Trans Urethral Resection of the Prostate (TURP) procedure or combinations of both treatment options.
(§1) The patients opted for immediate TURP and pharmacological therapy with alpha blocker, bethanechol, and donepezil if needed.
(§2) Bethanechol was then added to maximal recommended doses, according to package insert or Physician Desk Reference (PDR), which was 200 mg per day in divided doses. […] Bethanocol was either added at 75 mg five times per day to their existing regimen or patients were switched to betahnocol alone at 75 mg five time per day.
(§3) Subsequently donepezil was added in amounts ranging from 5 or 10 to their respective regimens.
While all patients in this series were males, females can also benefit from the present combination, particularly if no obstruction exists in their urinary tract.

[3] = tested on: patients with history of PVR; assay: Post void residual (PVR) before and after combination regimen in patients with urinary retention; type: in vivo, human; settings: donepezil 5 or 10 added to respective regimens (alpha blocker, bethanechol); all patients
Procedure: as §1, §2, §3

[4] = silodosin 8 mg added to tamsulosin

C[C@H](Cc1cc2c(c(C(N)=O)c1)N(CCCO)CC2)NCCOc1ccccc1OCC(F)(F)F [silodosin]
side effects [1, 4]: no extra side effects
voiding trial [2, 4]: failed to the voiding trial

CC(C[N+](C)(C)C)OC(N)=O (centres unmarked) [bethanechol, carbamyl-methylcholine chloride]
side effects ([1]; bethanechol at 200 mg per day or 375 mg per day, eight patients): no side effects

CCOc1ccccc1OCCN[C@H](C)Cc1ccc(OC)c(S(N)(=O)=O)c1 [tamsulosin]
voiding trial ([2]; tamsulosin 0.4 mg or 0.8 mg per day): failed a voiding trial

COc1cc2c(cc1OC)C(=O)C(CC1CCN(Cc3ccccc3)CC1)C2 (centres unmarked) [donepezil]
reduction in PVR upon completion of the trial [3]: more than 75%
ability to void ([2]; donepezil 5 or 10 added to respective regimens, each patient): able to void
bladder emptying ([2]; eight sequentially seen patients, donepezil with bethanechol): potentiated bethanechol to facilitate bladder emptying
frequency of voiding ([2]; upon continuation of the regimen with donepezil, all patients): increasing frequency of voiding
